test system: NF-κB; experiment: NF-κB luciferase reporter assay in A549/NF-κBLuc cells stimulated with IL-1β; format: cell-based, human; conditions: Homo sapiens, A549, A549/NF-κBLuc cells; compound added 1 hour before IL-1β, then 3 hours incubation; luciferase activity; read-out: NF-κB Inhibitory Activity (IC50)
Description: Effect on Human Lung Cancer-Derived Cell A549 (A549/NF-κBluc) Containing Stably Introduced Luciferase Plasmid (pNFκB-Luc, Stratagene. U.S.A.) Regulated by NF-κB Binding Sequence
Using Lipofectamine (Lifetech Oriental, Tokyo), pNFκB-Luc and pSV2neo (Clontech, U.S.A.) were co-transfected into the A549 cell (ATCC CCL185) and G418 sulfate (1 mg/ml, Lifetech Oriental) was added to the culture medium to select cells containing stably introduced pNFκB-Luc A549/NF-κBLuc.
The compound obtained in Examples each was added to A549/NF-κBLuc and one hour after that, IL-1β capable of activating NF-κB was added. The incubation was further continued for 3 hours.
NF-κB Inhibitory Activity (IC50) of Substituted Benzoic Acid Derivitives: […]

Row | SMILES | IC50
1 | COC1=C(OC)C(=O)C(Cc2ccc(O)c(C(=O)Nc3ccc(Cl)cc3)c2)=C(C)C1=O [Example 117] | 20 µM
2 | COC1=C(OC)C(=O)C(Cc2ccc(O)c(C(=O)Nc3ccc(N4CCOCC4)cc3)c2)=C(C)C1=O [Example 118, N-[5-(5,6-Dimethoxy-3-methyl-1,4-benzoquinon-2-yl)methyl-2-hydroxybenzoyl]-4-morpholinoaniline] | 8.3 µM
3 | COC1=C(OC)C(=O)C(Cc2ccc(O)c(C(=O)Nc3ccc(C#N)cc3)c2)=C(C)C1=O [Example 119, N-[5-(5,6-Dimethoxy-3-methyl-1,4-benzoquinon-2-yl)methyl-2-hydroxybenzoyl]-4-cyanoaniline] | 13 µM
4 | COC1=C(OC)C(=O)C(Cc2ccc(O)c(C(=O)Nc3ccc(C(F)(F)F)cc3)c2)=C(C)C1=O [Example 120, N-[5-(5,6-Dimethoxy-3-methyl-1,4-benzoquinon-2-yl)methyl-2-hydroxybenzoyl]-4-trifluoromethylaniline] | 1.7 µM
5 | COC1=C(OC)C(=O)C(Cc2ccc(O)c(C(=O)Nc3cc(C(F)(F)F)cc(C(F)(F)F)c3)c2)=C(C)C1=O [Example 121, N-[5-(5,6-Dimethoxy-3-methyl-1,4-benzoquinon-2-yl)methyl-2-hydroxybenzoyl]-3,5-bistrifluoromethylaniline] | 64 µM
6 | COC1=C(OC)C(=O)C(Cc2ccc(Oc3ccccc3)c(C(=O)N3CCCc4ccccc43)c2)=C(C)C1=O [Example 124, N-[5-(5,6-Dimethoxy-3-methyl-1,4-benzoquinon-2-yl)methyl-2-phenoxybenzoyl]-1,2,3,4-tetrahydroquinoline] | 46 µM
7 | COC1=C(OC)C(=O)C(Cc2ccc(Oc3ccccc3)c(C(=O)N3CCCCC3C)c2)=C(C)C1=O (stereo not drawn) [Example 125, N-[5-(5,6-Dimethoxy-3-methyl-1,4-benzoquinon-2-yl)methyl-2-phenoxybenzoyl]-2-methylpiperidine] | 19 µM
8 | COC(=O)c1cc(CC2=C(C)C(=O)C(OC)=C(OC)C2=O)ccc1OCC(=O)OC(C)(C)C [Example 130, Methyl 5-(5,6-Dimethoxy-3-methyl-1,4-benzoquinon-2-yl)methyl-2-(tert-butoxycarbonylmethyloxy)benzoate] | 59 µM
9 | COC1=C(OC)C(=O)C(Cc2ccc(OC(C)=O)c(C(=O)N(C)c3ccc(OC)cc3)c2)=C(C)C1=O [Example 163, N-Methyl-[5-(5,6-dimethoxy-3-methyl-1,4-benzoquinon-2-yl)methyl-2-acetoxybenzoyl]-4-methoxyaniline] | 30 µg/mL
10 | COC1=C(OC)C(=O)C(Cc2ccc(OC(C)=O)c(C(=O)Nc3cccnc3)c2)=C(C)C1=O [Example 201, N-(Pyridin-3-yl)-5-(5,6-dimethoxy-3-methyl-1,4-benzoquinon-2-yl)methyl-2-acetoxybenzamide] | 16 µg/mL
11 | COC1=C(OC)C(=O)C(Cc2cccc(C(=O)Nc3cccnc3)c2OC(C)=O)=C(C)C1=O [Example 206, N-(Pyridin-3-yl)-3-(5,6-dimethoxy-3-methyl-1,4-benzoquinon-2-yl)methyl-2-acetoxybenzamide] | 87 µg/mL
12 | COC1=C(OC)C(=O)C(Cc2ccc(OC(C)=O)c(C(=O)Nc3cccnc3N3CCOCC3)c2)=C(C)C1=O [Example 222, N-(2-Morpholinopyridin-3-yl)-5-(5,6-dimethoxy-3-methyl-1,4-benzoquinon-2-yl)methyl-2-acetoxybenzamide] | 77 µg/mL
13 | COC1=C(OC)C(=O)C(Cc2ccc(OC(C)=O)c(C(=O)Nc3ccc(N4CCOCC4)nc3)c2)=C(C)C1=O [Example 224, N-(6-Morpholinopyridin-3-yl)-5-(5,6-dimethoxy-3-methyl-1,4-benzoquinon-2-yl)methyl-2-acetoxybenzamide] | 24 µg/mL
14 | COC1=C(OC)C(=O)C(Cc2ccc(OC(C)=O)c(C(=O)Nc3ccnc(Cl)c3)c2)=C(C)C1=O [Example 226, N-(2-Chloropyridin-4-yl)-5-(5,6-dimethoxy-3-methyl-1,4-benzoquinon-2-yl)methyl-2-acetoxybenzamide] | 19 µg/mL

The next lines start with the values.

Row | IC50 | SMILES
15 | 24 µM | COC1=C(OC)C(=O)C(Cc2ccc(OCc3cccnc3)c(C(=O)N3CCCc4ccccc43)c2)=C(C)C1=O [Example 126, N-[5-(5,6-Dimethoxy-3-methyl-1,4-benzoquinon-2-yl)methyl-2-(3-pyridylmethyloxy)benzoyl]-1,2,3,4-tetrahydroquinoline]
16 | 24 µM | COC1=C(OC)C(=O)C(Cc2ccc(OCc3cccnc3)c(C(=O)N3CCC(C)CC3)c2)=C(C)C1=O [Example 127, N-[5-(5,6-Dimethoxy-3-methyl-1,4-benzoquinon-2-yl)methyl-2-(3-pyridylmethyloxy)benzoyl]-4-methylpiperidine]
17 | 19 µM | COC1=C(OC)C(=O)C(Cc2ccc(OCc3cccnc3)c(C(=O)Nc3cc(OC)c(OC)c(OC)c3)c2)=C(C)C1=O [Example 128, N-[5-(5,6-Dimethoxy-3-methyl-1,4-benzoquinon-2-yl)methyl-2-(3-pyridylmethyloxy)benzoyl]-3,4,5-trimethoxyaniline]
18 | 20 µg/mL | COC1=C(OC)C(=O)C(Cc2ccc(O)c(C(=O)N(C)c3ccc(OC)cc3)c2)=C(C)C1=O [Example 164, N-Methyl-[5-(5,6-dimethoxy-3-methyl-1,4-benzoquinon-2-yl)methyl-2-hydroxybenzoyl]-4-methoxyaniline]
19 | 47 µg/mL | COC1=C(OC)C(=O)C(Cc2ccc(O)c(C(=O)Nc3ccc(N)cc3)c2)=C(C)C1=O [Example 204, N-[5-(5,6-Dimethoxy-3-methyl-1,4-benzoquinon-2-yl)methyl-2-hydroxybenzoyl]-p-phenylenediamine]

test system: not given; experiment: not given; conditions: not given

Row | SMILES | melting point [°C]
20 | COC1=C(OC)C(=O)C(Cc2ccc(C(=O)Nc3ccc(Cl)nc3)c(O)c2)=C(C)C1=O [Example 131, N-(6-Chloropyridin-3-yl)-4-(5,6-dimethoxy-3-methyl-1,4-benzoquinon-2-yl)methyl-2-hydroxybenzamide] | 200.2 to 201.9
21 | COC1=C(OC)C(=O)C(Cc2ccc(C(=O)Nc3cccnc3Cl)c(OC(C)=O)c2)=C(C)C1=O [Example 132, N-(2-Chloropyridin-3-yl)-4-(5,6-dimethoxy-3-methyl-1,4-benzoquinon-2-yl)methyl-2-acetoxybenzamide] | 113.5 to 115.1
22 | COC1=C(OC)C(=O)C(Cc2ccc(C(=O)Nc3cccnc3Cl)c(O)c2)=C(C)C1=O [Example 133] | 200.2 to 202.6
23 | COC1=C(OC)C(=O)C(Cc2ccc(C(=O)Nc3ccc(OC)nc3)c(OC(C)=O)c2)=C(C)C1=O [Example 134, N-(6-Methoxypyridin-3-yl)-4-(5,6-dimethoxy-3-methyl-1,4-benzoquinon-2-yl)methyl-2-acetoxybenzamide] | 124.7 to 125.5
24 | COC1=C(OC)C(=O)C(Cc2ccc(C(=O)Nc3ccc(OC)nc3)c(O)c2)=C(C)C1=O [Example 135, N-(6-Methoxypyridin-3-yl)-4-(5,6-dimethoxy-3-methyl-1,4-benzoquinon-2-yl)methyl-2-hydroxybenzamide] | 194.3 to 196.5
25 | COC1=C(OC)C(=O)C(Cc2ccc(C(=O)Nc3ccc(S(=O)(=O)C(F)(F)F)cc3)c(O)c2)=C(C)C1=O [Example 137, N-[4-(5,6-Dimethoxy-3-methyl-1,4-benzoquinon-2-yl)methyl-2-hydroxybenzoyl]-4-(trifluoromethylsulfonyl)aniline] | 186.9 to 187.5
26 | COC1=C(OC)C(=O)C(Cc2ccc(C(=O)Nc3cccnc3)c(OC(C)=O)c2)=C(C)C1=O [Example 138, N-(Pyridin-3-yl)-4-(5,6-dimethoxy-3-methyl-1,4-benzoquinon-2-yl)methyl-2-acetoxybenzamide] | 158.2 to 160
27 | COC1=C(OC)C(=O)C(Cc2ccc(C(=O)Nc3cccnc3)c(O)c2)=C(C)C1=O [Example 139, N-(Pyridin-3-yl)-4-(5,6-dimethoxy-3-methyl-1,4-benzoquinon-2-yl)methyl-2-hydroxybenzamide] | 138.1 to 139.7
28 | COC1=C(OC)C(=O)C(Cc2ccc(C(=O)Nc3ccncc3)c(O)c2)=C(C)C1=O [Example 140, N-(Pyridin-4-yl)-4-(5,6-dimethoxy-3-methyl-1,4-benzoquinon-2-yl)methyl-2-hydroxybenzamide] | 181.4 to 183.3
29 | COC1=C(OC)C(=O)C(Cc2ccc(OC(C)=O)c(C(=O)Nc3ccc(F)cc3)c2)=C(C)C1=O [Example 141, N-[5-(5,6-Dimethoxy-3-methyl-1,4-benzoquinon-2-yl)methyl-2-acetoxybenzoyl]-4-fluoroaniline] | 128.5 to 130.5
30 | COC1=C(OC)C(=O)C(Cc2ccc(OC(C)=O)c(C(=O)Nc3cccc([N+](=O)[O-])c3)c2)=C(C)C1=O [Example 143, N-[5-(5,6-Dimethoxy-3-methyl-1,4-benzoquinon-2-yl)methyl-2-acetoxybenzoyl]-3-nitroaniline] | 152 to 153.5
31 | COC1=C(OC)C(=O)C(Cc2ccc(O)c(C(=O)Nc3cccc([N+](=O)[O-])c3)c2)=C(C)C1=O [Example 144, N-[5-(5,6-Dimethoxy-3-methyl-1,4-benzoquinon-2-yl)methyl-2-hydroxybenzoyl]-3-nitroaniline] | 153 to 154
32 | COC1=C(OC)C(=O)C(Cc2ccc(OC(C)=O)c(C(=O)Nc3ccccc3C(F)(F)F)c2)=C(C)C1=O [Example 145, N-[5-(5,6-Dimethoxy-3-methyl-1,4-benzoquinon-2-yl)methyl-2-acetoxybenzoyl]-2-trifluoromethylaniline] | 57.5 to 60
33 | COC1=C(OC)C(=O)C(Cc2ccc(OC(C)=O)c(C(=O)Nc3cccc(C(F)(F)F)c3)c2)=C(C)C1=O [Example 151, N-[5-(5,6-Dimethoxy-3-methyl-1,4-benzoquinon-2-yl)methyl-2-acetoxybenzoyl]-3-trifluoromethylaniline] | 98 to 100
